Measured values taken from patent US20200339691A1, “PROTEINACEOUS MOLECULES AND USES THEREFOR” (priority 2018, published 2020).

Tested on: PD-L1
Experiment: PD-L1 in MDA-MB-231 mouse xenografts treated with abraxane or docetaxel
Format: in vivo
Conditions: 35 days, compared with untreated cells
Method: The expression of PD-L1 in mouse MDA-MB-231 xenografts treated for 35 days with abraxane (60 mg/kg) or docetaxel (10 mg/kg) was investigated using confocal laser scanning microscopy.
Five-week-old female nude mice were acquired and allowed to acclimatize for one week in the animal facility before experimentation. All experimental procedures were accessed and approved by The Australian National University Animal Experimental Ethics Committee (Ethics ID A2014/30). MDA-MB-231 human breast carcinoma cells were injected subcutaneously into the right mammary gland (2×10^6 cells in 1:1 PBS and BD Matrigel Matrix). Tumors were measured using external calipers and calculated using the modified ellipsoidal formula: […], where a=longest diameter and b=shortest diameter. Tumors were allowed to grow to around 50 mm^3 before commencing treatments (around 15 days). Abraxane (60 mg/kg) or Docetaxel (10 mg/kg) were administered by i.p. injection. Tumors were excised and collected in DMEM supplemented with 2.5% FCS. […] Digested tumors were spun and resuspended in DMEM, 2.5% FCS before being passed through a […] filter and PD-L1 nuclear localization was assessed using immunofluorescence microscopy as described supra.

## CC(=O)O[C@@]12CO[C@@H]1C[C@H](O)[C@@]1(C)C(=O)[C@H](O)C3=C(C)[C@@H](OC(=O)[C@H](O)[C@@H](NC(=O)OC(C)(C)C)c4ccccc4)C[C@@](O)([C@@H](OC(=O)c4ccccc4)[C@H]21)C3(C)C [docetaxel]
  PD-L1 in the nucleus of surviving, resistant xenograft cells: higher levels of PD-L1 in the nucleus
